Consider 32 molecules from patent US9284333B2, “Fused pyrroledicarboxamides and their use as pharmaceuticals” (SANOFI, priority 2012, dated 2016).

SMILES strings stand for the structures. pIC50: −log10 of the molar value.

In the assay the target is Human TASK-1 channels (Homo sapiens (Human), UniProt O14649). Put plainly: Determination of the activity on the TASK-1 channel in Xenopus oocytes (two-microelectrode voltage clamp). The class given is cell-based. Conditions: for pIC50: human TASK-1 expressed in Xenopus oocytes, room temperature, read-out: IC50 value for TASK-1 inhibition; for inhibition at 5 µM: compound concentration 5 μM. Put shortly:
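Current during 500 ms pulses to 40 mV from a −90 mV hold was recorded in oocytes expressing human TASK-1 for two days after cRNA injection. Compounds were added cumulatively to the ND96 bath (pH 7.4, room temperature). IC50 came from dose-response fitting of inhibition relative to pre-compound current.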

Sequence of Human TASK-1 channels (O14649 whole entry): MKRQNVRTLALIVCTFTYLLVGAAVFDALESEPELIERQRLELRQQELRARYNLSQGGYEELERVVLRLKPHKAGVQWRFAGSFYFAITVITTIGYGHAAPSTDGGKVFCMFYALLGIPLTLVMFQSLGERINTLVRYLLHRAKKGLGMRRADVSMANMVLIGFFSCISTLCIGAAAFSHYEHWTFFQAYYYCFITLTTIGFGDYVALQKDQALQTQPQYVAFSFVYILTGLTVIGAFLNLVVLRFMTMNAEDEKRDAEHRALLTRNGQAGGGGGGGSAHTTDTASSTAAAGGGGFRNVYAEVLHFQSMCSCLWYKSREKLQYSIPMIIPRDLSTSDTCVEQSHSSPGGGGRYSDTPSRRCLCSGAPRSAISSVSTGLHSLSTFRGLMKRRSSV

Regarding `CC[C@@H](NC(=O)c1cc(C(=O)N2CCC[C@@H]2C)n2c1CCCC2)c1ccc(C#N)nc1` [16lv, 3-((S)-2-Methyl-pyrrolidine-1-carbonyl)-5,6,7,8-tetrahydro-indolizine-1-carboxylic acid [(R)-1-(6-cyano-pyridin-3-yl)-propyl]-amide], the pIC50 was 5.68.

Turning to `CC[C@@H](NC(=O)c1cc(C(=O)N2CCC[C@@H]2C)n2c1CCCC2)c1ccc(C(F)(F)F)nc1` [16lw, 3-((S)-2-Methyl-pyrrolidine-1-carbonyl)-5,6,7,8-tetrahydro-indolizine-1-carboxylic acid [(R)-1-(6-trifluoromethyl-pyridin-3-yl)-propyl]-amide], the pIC50 was 6.22.

With `CC[C@@H](NC(=O)c1cc(C(=O)N2CCC[C@@H]2C)n2c1CCCC2)c1ccc(C#N)cc1` [16lx, 3-((S)-2-Methyl-pyrrolidine-1-carbonyl)-5,6,7,8-tetrahydro-indolizine-1-carboxylic acid [(R)-1-(4-cyano-phenyl)-propyl]-amide], the negative logarithm of the IC50 (pIC50) was 6.70. As to `C[C@@H](NC(=O)c1cc(C(=O)N2CCC[C@@H]2C)n2c1CCCC2)c1ccc(Cl)cc1` [16ly, 3-((S)-2-Methyl-pyrrolidine-1-carbonyl)-5,6,7,8-tetrahydro-indolizine-1-carboxylic acid [(R)-1-(4-chloro-phenyl)-ethyl]-amide], the negative-log IC50 (pIC50) was 7.04. `CC[C@@H](NC(=O)c1cc(C(=O)N2CCC[C@@H]2C)n2c1CCCC2)c1ccc2c(c1)COC2=O` [16lz, 3-((S)-2-Methyl-pyrrolidine-1-carbonyl)-5,6,7,8-tetrahydro-indolizine-1-carboxylic acid [(R)-1-(1-oxo-1,3-dihydro-isobenzofuran-5-yl)-propyl]-amide] yielded an inhibition at 5 µM of 76%.

In the case of `CC[C@@H](NC(=O)c1cc(C(=O)N[C@H](CC)c2ccccc2)n2c1CCCC2)c1ccccc1` [16ma, 5,6,7,8-Tetrahydro-indolizine-1,3-dicarboxylic acid bis-[((R)-1-phenyl-propyl)-amide]], the pIC50 is 7.29. `CC[C@H](NC(=O)c1cc(C(=O)N[C@H](CC)c2ccccc2)c2n1CCCC2)c1ccccc1` [16mb, 5,6,7,8-Tetrahydro-indolizine-1,3-dicarboxylic acid 3-[((S)-1-phenyl-propyl)-amide] 1-[((R)-1-phenyl-propyl)-amide]]: the pIC50 was 7.89.

Consider `CC[C@@H](NC(=O)c1cc(C(=O)NCc2cnco2)c2n1CCCC2)c1ccccc1` [16mc, 5,67,8-Tetrahydro-indolizine-1,3-dicarboxylic acid 1-[(oxazol-5-ylmethyl)-amide] 3-[((R)-1-phenyl-propyl)-amide]], for which the negative logarithm of the IC50 (pIC50) is 6.21. On the same count and under the same terms, the result for `CC[C@@H](NC(=O)c1cc(C(=O)NCc2nccs2)c2n1CCCC2)c1ccccc1` [16md, 5,6,7,8-Tetrahydro-indolizine-1,3-dicarboxylic acid 3-[((R)-1-phenyl-propyl)-amide] 1-[(thiazol-2-ylmethyl)-amide]] reads 7.10; that for `CC[C@@H](NC(=O)c1cc(C(=O)Nc2nc(C)c(C)s2)c2n1CCCC2)c1ccccc1` [16me, 5,6,7,8-Tetrahydro-indolizine-1,3-dicarboxylic acid 3-[((R)-1-phenyl-propyl)-amide] 1-[(4,5-dimethyl-thiazol-2-yl)-amide]], 6.47; that for `CC[C@@H](NC(=O)c1cc(C(=O)NCC2CC2)n2c1CCCC2)c1ccccc1` [16mf, 5,6,7,8-Tetrahydro-indolizine-1,3-dicarboxylic acid 3-cyclopropylmethyl-amide 1-[((R)-1-phenyl-propyl)-amide]], 6.59. In the case of `CC[C@@H](NC(=O)c1cc(C(=O)N2CC[C@@H](OC)C2)n2c1CCCC2)c1ccccc1` [16mg, 3-((R)-3-Methoxy-pyrrolidine-1-carbonyl)-5,6,7,8-tetrahydro-indolizine-1-carboxylic acid ((R)-1-phenyl-propyl)-amide], the pIC50 was 6.08. On to `CC[C@@H](NC(=O)c1cc(C(=O)N(C)CCOC)n2c1CCCC2)c1ccccc1` [16mh, 5,6,7,8-Tetrahydro-indolizine-1,3-dicarboxylic acid 3-[(2-methoxy-ethyl)-methyl-amide] 1-[((R)-1-phenyl-propyl)-amide]], for which the pIC50 is 6.80. Regarding `CC[C@@H](NC(=O)c1cc(C(=O)N2CCCCC2)n2c1CCCC2)c1ccccc1` [16mi, 3-(Piperidine-1-carbonyl)-5,6,7,8-tetrahydro-indolizine-1-carboxylic acid ((R)-1-phenyl-propyl)-amide], the negative-log IC50 (pIC50) is 6.23. The same measure, in the same setting: for `CC[C@@H](NC(=O)c1cc(C(=O)N2CC[C@H](F)C2)n2c1CCCC2)c1ccccc1` [16mk, 3-((S)-3-Fluoro-pyrrolidine-1-carbonyl)-5,6,7,8-tetrahydro-indolizine-1-carboxylic acid ((R)-1-phenyl-propyl)-amide] the value was 6.26; for `CC[C@@H](NC(=O)c1cc(C(=O)NC2CCCCC2)n2c1CCCC2)c1ccccc1` [16ml, 5,6,7,8-Tetrahydro-indolizine-1,3-dicarboxylic acid 3-cyclohexylamide 1-[((R)-1-phenyl-propyl)-amide]], 6.89; for `CC[C@@H](NC(=O)c1cc(C(=O)N2CCC[C@@H]2c2ccccc2)n2c1CCCC2)c1ccccc1` [16mm, 3-((R)-2-Phenyl-pyrrolidine-1-carbonyl)-5,6,7,8-tetrahydro-indolizine-1-carboxylic acid ((R)-1-phenyl-propyl)-amide], 6.92.

As for `CC[C@@H](NC(=O)c1cc(C(=O)N2CCC[C@H]2c2ccccc2)n2c1CCCC2)c1ccccc1` [16mn, 3-((S)-2-Phenyl-pyrrolidine-1-carbonyl)-5,6,7,8-tetrahydro-indolizine-1-carboxylic acid ((R)-1-phenyl-propyl)-amide], the inhibition at 5 µM turned out to be 92%. As for `CC[C@@H](NC(=O)c1cc(C(=O)N2CCC(F)(F)CC2)n2c1CCCC2)c1ccccc1` [16mo, 3-(4,4-Difluoro-piperidine-1-carbonyl)-5,6,7,8-tetrahydro-indolizine-1-carboxylic acid ((R)-1-phenyl-propyl)-amide], the negative logarithm of the IC50 (pIC50) was 5.72.

For `CC[C@@H](NC(=O)c1cc(C(=O)NCC2CCCCC2)n2c1CCCC2)c1ccccc1` [16mp, 5,6,7,8-Tetrahydro-indolizine-1,3-dicarboxylic acid 3-cyclohexylmethyl-amide 1-[((R)-1-phenyl-propyl)-amide]], the negative-log IC50 (pIC50) was 7.03. Consider `CC[C@@H](NC(=O)c1cc(C(=O)NCC2CCOCC2)n2c1CCCC2)c1ccccc1` [16mq, 5,6,7,8-Tetrahydro-indolizine-1,3-dicarboxylic acid 1-[((R)-1-phenyl-propyl)-amide] 3-[(tetrahydro-pyran-4-ylmethyl)-amide]], for which the pIC50 is 6.51.

As to `CC[C@@H](NC(=O)c1cc(C(=O)N2CCCCCC2)n2c1CCCC2)c1ccccc1` [16mr, 3-(Azepane-1-carbonyl)-5,6,7,8-tetrahydro-indolizine-1-carboxylic acid ((R)-1-phenyl-propyl)-amide], the negative logarithm of the IC50 (pIC50) was 6.70.

As to `CC[C@@H](NC(=O)c1cc(C(=O)N2CCC(c3ccccc3)C2)n2c1CCCC2)c1ccccc1` (stereo partly drawn) [16ms, 3-(3-Phenyl-pyrrolidine-1-carbonyl)-5,6,7,8-tetrahydro-indolizine-1-carboxylic acid ((R)-1-phenyl-propyl)-amide], the negative-log IC50 (pIC50) is 6.26.

In the case of `CC[C@@H](NC(=O)c1cc(C(=O)N[C@H](C)c2ccc(OC)cc2)n2c1CCCC2)c1ccccc1` [16mt, 5,6,7,8-Tetrahydro-indolizine-1,3-dicarboxylic acid 3-{[(R)-1-(4-methoxy-phenyl)-ethyl]-amide} 1-[((R)-1-phenyl-propyl)-amide]], the pIC50 is 6.49.

With `CC[C@@H](NC(=O)c1cc(C(=O)N(C)Cc2ccc(F)cc2)n2c1CCCC2)c1ccccc1` [16mu, 5,6,7,8-Tetrahydro-indolizine-1,3-dicarboxylic acid 3-[(4-fluoro-benzyl)-methyl-amide] 1-[((R)-1-phenyl-propyl)-amide]], the negative logarithm of the IC50 (pIC50) was 7.12. The same measure, in the same setting: the result for `CC[C@@H](NC(=O)c1cc(C(=O)N[C@@H](c2ccccc2)C2CC2)n2c1CCCC2)c1ccccc1` [16mv, 5,6,7,8-Tetrahydro-indolizine-1,3-dicarboxylic acid 3-[((R)-cyclopropyl-phenyl-methyl)-amide] 1-[((R)-1-phenyl-propyl)-amide]] reads 7.32; that for `CC[C@@H](NC(=O)c1cc(C(=O)N[C@H](C)C2CC2)n2c1CCCC2)c1ccccc1` [16mw, 5,6,7,8-Tetrahydro-indolizine-1,3-dicarboxylic acid 3-[((R)-1-cyclopropyl-ethyl)-amide] 1-[((R)-1-phenyl-propyl)-amide]], 7.13; that for `CC[C@@H](NC(=O)c1cc(C(=O)NCCc2ccc(F)cc2)n2c1CCCC2)c1ccccc1` [16mx, 5,6,7,8-Tetrahydro-indolizine-1,3-dicarboxylic acid 3-{[2-(4-fluoro-phenyl)-ethyl]-amide} 1-[((R)-1-phenyl-propyl)-amide]], 7.01. On to `CC[C@@H](NC(=O)c1cc(C(=O)NCC2CCCC2)n2c1CCCC2)c1ccccc1` [16my, 5,6,7,8-Tetrahydro-indolizine-1,3-dicarboxylic acid 3-cyclopentylmethyl-amide 1-[((R)-1-phenyl-propyl)-amide]], for which the pIC50 is 6.92. Take `CC[C@@H](NC(=O)c1cc(C(=O)N[C@@H](C)C2CC2)n2c1CCCC2)c1ccccc1` [16mz, 5,6,7,8-Tetrahydro-indolizine-1,3-dicarboxylic acid 3-[((S)-1-cyclopropyl-ethyl)-amide] 1-[((R)-1-phenyl-propyl)-amide]]: the negative logarithm of the IC50 (pIC50) was 7.38. Take `CC[C@@H](NC(=O)c1cc(C(=O)N2CCC[C@@H]2C(=O)OC(C)C)n2c1COCC2)c1ccccc1` [16n]: the pIC50 was 6.85. Turning to `CC[C@@H](NC(=O)c1cc(C(=O)NCC(CC2CC2)c2ccccc2)n2c1CCCC2)c1ccccc1` (stereo partly drawn) [16na, 5,6,7,8-Tetrahydro-indolizine-1,3-dicarboxylic acid 3-[(3-cyclopropyl-2-phenyl-propyl)-amide] 1-[((R)-1-phenyl-propyl)-amide]], the pIC50 is 5.77.

As a reminder, the pIC50 is the negative decadic logarithm of the IC50, by convention in mol/L. As usually defined, the inhibition is the share of the control response that was lost under treatment. A high value points to a response far below the control.
